From paper PMC6093650, “Antidepressive and anxiolytic effects of ostruthin, a TREK-1 channel activator” (PLoS ONE, 2018) come the findings set out here.

In test [1] the test system is depression-like behavior of mice. As to the kind of experiment: social defeat stress test. The conditions noted are these: C57BL/6J mice after 9 days of defeat, p = 0.440, n = 14. The format is in vivo. The source says: Male ICR mice (n = 317 in total) aged 5 weeks and weighing 32 ± 2 g were purchased from Shimizu Laboratory Supplies (Kyoto, Japan). For the social defeat stress test, we used 28 C57BL/6J mice (5 weeks old, Shimizu Laboratory Supplies) and 30 ICR mice (7–8 weeks old, Charles River Labs Japan, Yokohama, Kanagawa, Japan). Mice were maintained for at least 1 week prior to experiments. Animals were kept in groups in plastic cages. They had free access to food and water, and were kept in a 12-h light/dark cycle (08:00–20:00). Experiments were carried out between 10:00 and 18:00 in a quiet and air-conditioned experimental room, in which mice were habituated for at least 30 min before each experiment. Animal experiments were performed in accordance with the guidelines of the Physiological Society of Japan and were approved by the Committees on Animal Experiments at Kansai Medical University and the Kurashiki University of Science and the Arts. Ostruthin was initially dissolved in DMSO at higher concentration (100 mM) and then diluted in phosphate-buffered saline (PBS). The diluted solution was mixed vigorously for more than 10 min before the experiments, and an equal volume of DMSO was added to PBS as a control. […] Time spent in the target zone was measured firstly with the empty mesh enclosure for 150 sec. […]

For test [2] the test system is unchanged. As to the kind of experiment: tail suspension test. It counts as in vivo. The source says:
(§1) Male ICR mice (n = 317 in total) aged 5 weeks and weighing 32 ± 2 g were purchased from Shimizu Laboratory Supplies (Kyoto, Japan). For the social defeat stress test, we used 28 C57BL/6J mice (5 weeks old, Shimizu Laboratory Supplies) and 30 ICR mice (7–8 weeks old, Charles River Labs Japan, Yokohama, Kanagawa, Japan). Mice were maintained for at least 1 week prior to experiments. Animals were kept in groups in plastic cages. They had free access to food and water, and were kept in a 12-h light/dark cycle (08:00–20:00). Experiments were carried out between 10:00 and 18:00 in a quiet and air-conditioned experimental room, in which mice were habituated for at least 30 min before each experiment. Animal experiments were performed in accordance with the guidelines of the Physiological Society of Japan and were approved by the Committees on Animal Experiments at Kansai Medical University and the Kurashiki University of Science and the Arts. Ostruthin was initially dissolved in DMSO at higher concentration (100 mM) and then diluted in phosphate-buffered saline (PBS). The diluted solution was mixed vigorously for more than 10 min before the experiments, and an equal volume of DMSO was added to PBS as a control. PBS and ostruthin were administered intraperitoneally 30 min before mice behavioral tests (0.01 ml/g body weight). Each animal was used only once, except for the wheel running test, which was carried out immediately after elevated plus maze.
The tail suspension test was performed in accordance with a method reported previously. The mouse was hung on a hook using adhesive tape placed 2 cm from the extremity of its tail 50 cm above the table. The amount of time spent immobile was recorded for 5 min.

For test [3], the system named is mice anxiety-like behavior. As to the kind of experiment: open-field test. It counts as in vivo. The conditions noted are these: n = 12.
Description: as §1
The open-field test was performed in accordance with a previous report with minor modifications. The open-field consisted of a square (90 × 90 cm), in which the floor was divided into 16 equal squares. After a mouse was placed in a corner of the open field facing the wall, the number of the entries into the central squares, and whole line crossings were counted for 5 min. After removal of animal, the apparatus was cleaned and wiped.

The next test concerns the target T1, TASK-1 (Homo sapiens, UniProt O14649).
T1 construct: expressed in transfected cells
As to the kind of experiment: whole-cell patch-clamp of TASK-1 currents in a 293T cell line. It counts as cell-based. Conditions: n = 10. The source says: For recordings of K^+ channel currents, we prepared stable cell lines for TREK-1, TWIK-related acid-sensitive K^+ channel (TASK-1), strongly inwardly rectifying K^+ channel (Kir2.1), and human ether-a-go-go-related gene (HERG-1) channels and transiently expressed other channels in 293T cells using a calcium-phosphate transfection method. For the establishment of the stable lines, we used lentiviral vectors, and the preparation methods for the lentiviral vectors were described in our previous report. TR-1 cells, which stably expressed TREK-1 channel and were grown on a small cover glass (3 × 18 mm), were placed in a recording chamber with an internal volume of 200 μl. Whole-cell currents were recorded in Tyrode solution using an Axopatch 200B amplifier (Axon Instruments, Foster City, CA) at 25°C. Tyrode solution contained (in mM): NaCl 140, KCl 5.4, NaH2PO4 0.33, CaCl2 2, MgCl2 1, HEPES 5, and glucose 5.5 (pH 7.4 adjusted with NaOH). […] Perfusion (100 μl/min) was continued to maintain the water level throughout recordings. pH and osmotic pressure of solutions were measured with a pH meter (Horiba, Kyoto, Japan) and a freezing point osmometer (Knauer, Berlin, Germany), respectively. […]
(The patch-clamp technique gives a direct electrical read-out from membranes.)

T1 sequence (O14649 whole entry, species assumed): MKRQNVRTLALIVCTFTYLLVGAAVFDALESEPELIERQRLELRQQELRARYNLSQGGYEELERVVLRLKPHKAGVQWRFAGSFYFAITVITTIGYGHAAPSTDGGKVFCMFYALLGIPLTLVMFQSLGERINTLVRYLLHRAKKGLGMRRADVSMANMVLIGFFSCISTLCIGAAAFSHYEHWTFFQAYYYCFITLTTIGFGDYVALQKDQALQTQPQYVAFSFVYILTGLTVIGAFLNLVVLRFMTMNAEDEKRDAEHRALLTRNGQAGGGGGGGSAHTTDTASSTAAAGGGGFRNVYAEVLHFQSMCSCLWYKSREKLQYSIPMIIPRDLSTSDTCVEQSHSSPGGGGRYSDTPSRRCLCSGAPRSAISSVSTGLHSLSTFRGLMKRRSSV

One may read the IC50 as the concentration needed to halve the response being measured. The low end stands for inhibition by little substance, the high end for a need for much substance. With `CC(C)=CCC/C(C)=C/Cc1cc2ccc(=O)oc2cc1O` [ostruthin], the “time difference in the interaction area (target zone)” value in test [1] was “increased the time difference in the interaction area non-significantly”. Moreover, the time spent immobile result in test [2] (amlodipine experiment: single compound vs PBS, ostruthin 5 mg/kg or amlodipine 10 mg/kg, n = 9 and 13) is given as “significantly decreased”; in test [2] (i.p. 30 min before test, 5 min, n = 14, vs PBS), “decreased”; in test [2] (ostruthin 5 mg/kg in the presence of amlodipine 10 mg/kg (co-administration)), “no effect”; in test [2] (ostruthin given 30 min after pre-administration of amlodipine, vs secondary PBS, n = 8) it was “ineffective”. In addition, the “number of entries to the central area” value is listed as “significantly decreased” in test [3] (20 mg/kg i.p. 30 min before test, vs 5 mg/kg); “significantly increased” in test [3] (2 and 5 mg/kg i.p. 30 min before test, vs 0 mg/kg, 5 min). Further, the total line crossings result was “decrease” in test [3] (20 mg/kg i.p., vs 5 mg/kg); “increased” in test [3] (2 and 5 mg/kg i.p. 30 min before test, vs 0 mg/kg). In addition, the IC50 at TASK-1 came to 41 µM.
